# Results taken from article PMC7558026, “Exploring and applying the substrate promiscuity of a C-glycosyltransferase in the chemo-enzymatic synthesis of bioactive C-glycosides” (Nature Communications, 2020).
# Values joined by “and” are separate entries in the source; they are usually repeats but may differ in a detail not shown here. Equal entries are not always repeated.
# Key:
# Format in all cases: biochemical, Aloe barbadensis
# AbCGT [1] = assay: Effects of pH, temperature and divalent metal ions on AbCGT activity (phloretin 17 + UDP-Glc); conditions: for relative activity / conversion rates of Phloretin: in presence of the divalent cation or EDTA; for relative activity: relative to CK; for effect of divalent metal ion on catalytic activity of AbCGT (in words): 5 mM, phloretin (17) + UDP-Glc, 10 min
# Protocol: To assay for the optimal reaction temperature, the reaction mixtures were incubated at pH 11.0 and different temperatures (15–60 °C). To test the necessity of divalent metal ions for AbCGT, BaCl2, CaCl2, CoCl2, CuCl2, FeCl2, MgCl2, MnCl2, ZnCl2, and EDTA were used individually at a final concentration of 5 mM. […] For quantification, three parallel assays were routinely carried out.
# AbCGT [2] = molecular target: AbCGT (Aloe vera, UniProt A0A7G9P699); assay: Glycosyltransferase activity assay, purified AbCGT (wild type) with aglycon acceptors and UDP-Glc; conditions: for conversion rates, O,N,S-glycosylation / conversion rates, di-C-glycosylation / conversion rates, mono-C-glycosylation: aglycon acceptor with UDP-Glc, pH 7.4, 30 °C, up to 12 h, Reaction-1 to -3
# Sequence of AbCGT (Aloe vera, UniProt A0A7G9P699) (A0A7G9P699 entry or part of it): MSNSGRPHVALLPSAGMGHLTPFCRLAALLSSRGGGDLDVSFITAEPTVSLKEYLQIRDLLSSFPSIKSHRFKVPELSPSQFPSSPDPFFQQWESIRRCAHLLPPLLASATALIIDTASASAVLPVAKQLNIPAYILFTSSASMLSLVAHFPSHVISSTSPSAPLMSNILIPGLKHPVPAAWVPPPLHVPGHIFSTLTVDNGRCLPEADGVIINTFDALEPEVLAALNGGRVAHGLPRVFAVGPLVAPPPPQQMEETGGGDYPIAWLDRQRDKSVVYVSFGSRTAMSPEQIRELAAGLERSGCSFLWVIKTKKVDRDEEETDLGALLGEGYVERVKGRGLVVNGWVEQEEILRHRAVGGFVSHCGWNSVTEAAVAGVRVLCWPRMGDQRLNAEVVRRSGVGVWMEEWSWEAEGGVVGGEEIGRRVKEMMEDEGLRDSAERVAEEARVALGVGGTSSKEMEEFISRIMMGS
# Protocol: Due to the instability of some acceptors in the buffer of pH 11.0, the reactions were performed under the physiological conditions (pH 7.4, 30 °C) to compare the catalytic activities of AbGT27 with different substrates under the same conditions. The reactions were performed at 30 °C for up to 12 h and terminated by the addition of 200 μL of ice-cold methanol. Subsequently, samples were centrifuged at 15,000 × g for 30 min to collect the supernatant, and aliquots were analyzed by HPLC-UV/ESIMS. […] The gradient programs were used for the analysis of the reactions (Supplementary Table 6). The conversion rates of the enzyme reactions were calculated from peak areas of glycosylated products and substrates as analyzed by HPLC. To facilitate inferential statistical analysis, three parallel assays were routinely performed; the means ± SD from triplicate analyses are reported here.
# AbCGT V183D = molecular target: T1, AbCGT V183D (Aloe vera, UniProt A0A7G9P699, V183D); assay: Glycosyltransferase activity of AbCGT variant V183D
# T1 sequence (A0A7G9P699 1-470 V183D): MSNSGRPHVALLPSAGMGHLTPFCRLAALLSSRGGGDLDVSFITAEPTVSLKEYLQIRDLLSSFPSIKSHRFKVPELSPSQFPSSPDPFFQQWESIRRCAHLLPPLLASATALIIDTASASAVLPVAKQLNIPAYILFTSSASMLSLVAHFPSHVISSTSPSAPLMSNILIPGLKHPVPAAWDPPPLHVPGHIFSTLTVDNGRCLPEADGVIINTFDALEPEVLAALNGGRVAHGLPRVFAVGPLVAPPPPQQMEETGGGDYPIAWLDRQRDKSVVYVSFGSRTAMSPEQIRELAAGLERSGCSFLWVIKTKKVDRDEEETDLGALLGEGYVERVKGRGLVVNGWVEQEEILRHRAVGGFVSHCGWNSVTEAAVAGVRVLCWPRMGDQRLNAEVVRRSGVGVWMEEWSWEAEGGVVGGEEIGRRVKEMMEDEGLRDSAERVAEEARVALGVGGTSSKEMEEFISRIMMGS
# Protocol: The reaction mixture contained 0.5 mM sugar donors (1.0 mM for di-glycosylation), 0.25 mM aglycons, 50 mM Tris-HCl (pH 7.4), and 50‒100 μg of purified AbCGT in a final volume of 100 μL. Due to the instability of some acceptors in the buffer of pH 11.0, the reactions were performed under the physiological conditions (pH 7.4, 30 °C) to compare the catalytic activities of AbGT27 with different substrates under the same conditions. The reactions were performed at 30 °C for up to 12 h and terminated by the addition of 200 μL of ice-cold methanol. Subsequently, samples were centrifuged at 15,000 × g for 30 min to collect the supernatant, and aliquots were analyzed by HPLC-UV/ESIMS. HPLC analysis was performed on a Shiseido CAPCELL PAK C18 MG III column (250 mm × 4.6 mm I.D., 5 μm, Shiseido Co., Ltd., Japan) at a flow rate of 1 mL min^‒1. The mobile phase was a gradient elution of solvents A (0.1% formic acid aqueous solution) and B (methanol). The gradient programs were used for the analysis of the reactions (Supplementary Table 6). The conversion rates of the enzyme reactions were calculated from peak areas of glycosylated products and substrates as analyzed by HPLC. To facilitate inferential statistical analysis, three parallel assays were routinely performed; the means ± SD from triplicate analyses are reported here.
# Site-saturation mutagenesis of AbCGT at residue 183 was performed by PCR using pET28a-AbCGT as a template and the corresponding degenerate primers, which are listed in Supplementary Table 5. PCR products were purified and transformed into Trans1-T1 (DE3) E. coli. The sequences of pET28a-AbCGT mutants were confirmed by sequencing, and transformed into Transetta (DE3) E. coli for heterologous expression following protein purification.
"conversion rates, O,N,S-glycosylation (AbCGT [2])","conversion rates, di-C-glycosylation (AbCGT [2])","conversion rates, mono-C-glycosylation (AbCGT [2])",SMILES,relative activity (AbCGT [1]; reaction-1),relative activity (AbCGT [1]; reaction-2),relative activity (AbCGT [1]; reaction-3),conversion rates of Phloretin (AbCGT [1]; reaction-1),conversion rates of Phloretin (AbCGT [1]; reaction-2),conversion rates of Phloretin (AbCGT [1]; reaction-3),also measured
,,,[Ni+2] [Ni2+],13.7,12.0,15.5,7.1,6.2,8,
0%,0%,86.7% and 87.5% and 90.2%,Cc1cc(O)cc(O)c1C=O [Compound 8],,,,,,,
0%,0%,45.2% and 41.8% and 43%,CC(=O)c1c(C)cc(O)cc1O [Compound 9],,,,,,,
,,,[Fe+2] [Fe2+],23.0,24.7,18.0,11.9,12.8,9.3,
90% and 92% and 94.8%,0%,0%,"Cc1cc(=O)oc2cc(O)ccc12 [Compound 24, 7-hydroxy-4-methylcoumarin]",,,,,,,
,,,[Cl][Mn][Cl] [Mn^2+],,,,,,,effect of divalent metal ion on catalytic activity of AbCGT (in words) (AbCGT [1]): greatly enhanced the catalytic activity of AbCGT
0%,100%,0%,CCCCC(=O)c1c(O)cc(O)cc1O [Compound 16],,,,,,,
,,,[Ba+2].[Cl-].[Cl-] [Ba^2+],,,,,,,effect of divalent metal ion on catalytic activity of AbCGT (in words) (AbCGT [1]): greatly enhanced the catalytic activity of AbCGT
,,,[Cl-].[Cl-].[Mg+2] [Mg2+],157.2,160.4,167.6,81.3,83,86.7,
,,,[Ca+2].[Cl-].[Cl-] [Ca^2+],,,,,,,effect of divalent metal ion on catalytic activity of AbCGT (in words) (AbCGT [1]): greatly enhanced the catalytic activity of AbCGT
0%,93.8% and 92% and 91.6%,3.2% and 4.7% and 4%,O=C(OCCCc1ccccc1)c1c(O)cc(O)cc1O [Compound 18],,,,,,,
,,,[Cu+2] [Cu2+],0.0,0.0,0.0,0,0,0,
,,,[Cl][Mn][Cl] [Mn2+],162.4,178.6,171.3,84,92.4,88.6,
0%,100%,0%,O=Cc1c(O)cc(O)cc1O [Compound 10],,,,,,,
,,,O=C(O)CN(CCN(CC(=O)O)CC(=O)O)CC(=O)O [EDTA],89.5,90.9,102.3,46.3,47,52.9,
87% and 86% and 85.3%,0%,0%,"Cc1cc(=O)oc2cc(S)ccc12 [Compound 25, 7-mercapto-4-methylcoumarin]",,,,,,,
0%,0%,100%,CC(=O)c1c(O)cc(O)c(C(C)=O)c1O [Compound 12],,,,,,,
0%,63% and 63.5% and 65.1%,37% and 36.5% and 34.9%,O=C(c1ccc(O)c(O)c1)c1c(O)cc(O)cc1O [Compound 19],,,,,,,
,,,[Co+2] [Co2+],36.5,41.0,43.9,18.9,21.2,22.7,
0%,0%,0%,COc1cc(OC)c(C(C)=O)c(OC)c1 [Compound 15],,,,,,,
,,,[Zn+2] [Zn2+],1.9,3.9,1.9,1,2,1,
,,,[Ba+2].[Cl-].[Cl-] [Ba2+],119.8,122.9,119.3,62,63.6,61.7,
,,,[Ca+2].[Cl-].[Cl-] [Ca2+],149.8,161.0,139.4,77.5,83.3,72.1,
,,,[Cl-].[Cl-].[Mg+2] [Mg^2+],,,,,,,effect of divalent metal ion on catalytic activity of AbCGT (in words) (AbCGT [1]): greatly enhanced the catalytic activity of AbCGT

SMILES,"conversion rates, O,N,S-glycosylation (AbCGT [2])","conversion rates, di-C-glycosylation (AbCGT [2])","conversion rates, mono-C-glycosylation (AbCGT [2])",relative activity (AbCGT [1]; reaction-1),relative activity (AbCGT [1]; reaction-2),relative activity (AbCGT [1]; reaction-3),conversion rates of Phloretin (AbCGT [1]; reaction-1),conversion rates of Phloretin (AbCGT [1]; reaction-2),conversion rates of Phloretin (AbCGT [1]; reaction-3),also measured
CC(=O)c1ccccc1O [Compound 1],30.2% and 31% and 32.1%,0%,0%,,,,,,,V183D/yield of C-glycoside(%) (AbCGT V183D; reaction-1): 0%; V183D/yield of O-glycoside(%) (AbCGT V183D; reaction-1): 0%; V183D/yield of C-glycoside(%) (AbCGT V183D; reaction-2): 0%; V183D/yield of O-glycoside(%) (AbCGT V183D; reaction-2): 0%; V183D/yield of C-glycoside(%) (AbCGT V183D; reaction-3): 0%; V183D/yield of O-glycoside(%) (AbCGT V183D; reaction-3): 0%; WT/yield of C-glycoside(%) (AbCGT [2]; reaction-1): 0%; WT/yield of O-glycoside(%) (AbCGT [2]; reaction-1): 32.8%; WT/yield of C-glycoside(%) (AbCGT [2]; reaction-2): 0%; WT/yield of O-glycoside(%) (AbCGT [2]; reaction-2): 33.5%; WT/yield of C-glycoside(%) (AbCGT [2]; reaction-3): 0%; WT/yield of O-glycoside(%) (AbCGT [2]; reaction-3): 28.2%
